{"source": "patent US20220204539A1", "about": "“CD73 INHIBITORS” (BioArdis LLC, priority 2019, published 2022)", "key": {"[1]": {"target": "T1, Recombinant Human 5′-Nucleotidase (CD73) (Homo sapiens, UniProt P21589)", "T1 construct": "CHO derived CD73 (Trp27-Lys547), with a C-terminal 6-His tag; 6-His (C); purchased R&D 5795-EN; host or cells: CHO", "T1 sequence (P21589 27-547)": "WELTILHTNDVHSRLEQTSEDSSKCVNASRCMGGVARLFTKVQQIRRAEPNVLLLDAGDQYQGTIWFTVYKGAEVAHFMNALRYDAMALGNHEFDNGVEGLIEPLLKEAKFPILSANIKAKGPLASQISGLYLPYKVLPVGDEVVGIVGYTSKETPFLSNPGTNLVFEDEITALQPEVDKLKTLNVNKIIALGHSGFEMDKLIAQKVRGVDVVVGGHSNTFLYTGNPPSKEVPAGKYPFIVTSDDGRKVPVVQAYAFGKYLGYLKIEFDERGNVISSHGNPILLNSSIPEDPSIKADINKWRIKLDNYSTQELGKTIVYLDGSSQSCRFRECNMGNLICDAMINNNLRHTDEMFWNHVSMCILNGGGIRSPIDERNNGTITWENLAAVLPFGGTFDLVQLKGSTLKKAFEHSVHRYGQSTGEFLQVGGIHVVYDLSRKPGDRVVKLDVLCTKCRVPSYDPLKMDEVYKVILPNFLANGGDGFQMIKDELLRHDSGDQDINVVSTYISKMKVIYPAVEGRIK", "assay": "CD73 Enzyme Assay", "assay_type": "biochemical", "conditions": "human CD73 0.5 nM, AMP 30 μM, PiColorLock phosphate detection; read-out: Potency (IC50, CD73 enzyme assay)", "outline": "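Human CD73 (CHO-derived Trp27-Lys547, His-tagged; 0.5 nM final) was preincubated with compound for 15 min at 25° C. in Tris pH 7.5 buffer with MgCl2. It then reacted with 30 μM AMP for 20 min at 37° C., and released phosphate was read by malachite green absorbance at 635 nm. IC50 came from four-parameter fits against enzyme and no-enzyme controls.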"}, "[2]": {"target": "T2, Cell surface CD73 of U87 MG human glioblastoma cells (Homo sapiens, UniProt P21589)", "T2 construct": "Cell surface CD73 catalyzes the conversion of adenosine monophosphate (AMP) to adenosine and inorganic phosphate; endogenous in cells; host or cells: U87 MG human glioblastoma cells", "T2 sequence (P21589 27-549)": "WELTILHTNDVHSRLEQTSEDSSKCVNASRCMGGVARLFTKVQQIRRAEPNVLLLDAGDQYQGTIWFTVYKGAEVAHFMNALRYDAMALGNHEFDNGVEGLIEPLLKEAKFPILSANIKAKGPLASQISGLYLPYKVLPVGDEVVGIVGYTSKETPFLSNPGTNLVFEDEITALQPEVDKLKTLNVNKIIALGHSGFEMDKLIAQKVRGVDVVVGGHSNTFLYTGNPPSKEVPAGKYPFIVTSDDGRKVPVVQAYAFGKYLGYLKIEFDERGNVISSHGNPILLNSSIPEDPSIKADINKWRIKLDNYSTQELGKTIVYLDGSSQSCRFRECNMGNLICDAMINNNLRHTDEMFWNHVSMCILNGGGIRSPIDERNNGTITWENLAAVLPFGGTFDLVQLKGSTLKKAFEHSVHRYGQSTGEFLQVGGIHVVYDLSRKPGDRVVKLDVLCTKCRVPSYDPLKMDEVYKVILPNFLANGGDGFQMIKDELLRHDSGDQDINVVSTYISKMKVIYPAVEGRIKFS", "assay": "CD73 Cellular Assay", "assay_type": "cell-based", "conditions": "5000 cells per well, 30 μM AMP substrate, read-out: Potency (IC50, CD73 cellular assay)", "outline": "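U87 MG cells (5000/well) preincubated with compound 30 min at 37 °C, 5% CO2, in HEPES-buffered saline pH 7.4 with 0.5% DMSO, then 30 μM AMP (final) for 50 min. Released phosphate in supernatant read colorimetrically at 635 nm; IC50 from four-parameter logistic fit versus cells-plus-substrate and cells-only controls.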"}}, "data": [{"smiles": "O=P(O)(O)CP(=O)(O)OC[C@H]1O[C@@H](c2cnc3c(N4CC5CC5C4)nc(Cl)nn23)[C@H](O)[C@@H]1O", "note": "(stereo partly drawn) [Compound 45, [({[(2R,3S,4R,5S)-5-(4-{3-azabicyclo[3.1.0]hexan-3-yl}-2-chloroimidazo[2,1-f][1,2,4]triazin-7-yl)-3,4-dihydroxyoxolan-2-yl]methoxy}(hydroxy)phosphoryl)methyl]phosphonic Acid]", "values": [{"measurement": "IC50", "setting": "[1]", "result": "< 10", "unit": "nM"}, {"measurement": "IC50", "setting": "[2]", "result": "< 1", "unit": "nM"}]}, {"smiles": "O=P(O)(O)CP(=O)(O)OC[C@H]1O[C@@H](c2cnc3c(N4CCC(F)(F)C4)nc(Cl)nn23)[C@H](O)[C@@H]1O", "note": "[Compound 46, [({[(2R,3S,4R,5S)-5-[2-chloro-4-(3,3-difluoropyrrolidin-1-yl)imidazo[2,1-f][1,2,4]triazin-7-yl]-3,4-dihydroxyoxolan-2-yl]methoxy}(hydroxy)phosphoryl)methyl]phosphonic Acid]", "values": [{"measurement": "IC50", "setting": "[1]", "result": "< 10", "unit": "nM"}, {"measurement": "IC50", "setting": "[2]", "result": "< 1", "unit": "nM"}]}, {"smiles": "O=P(O)(O)CP(=O)(O)OC[C@H]1O[C@@H](c2cnc3c(NC4CCOCC4)nc(Cl)nn23)[C@H](O)[C@@H]1O", "note": "[Compound 47, (((((2R,3S,4R,1S)-5-(2-chloro-4-((tetrahydro-2H-pyran-4-yl)amino)imidazo[2,1-f][1,2,4]triazin-7-yl)-3,4-dihydroxytetrahydrofuran-2-yl)methoxy)(hydroxy)phosphoryl)methyl)phosphonic Acid]", "values": [{"measurement": "IC50", "setting": "[1]", "result": "< 10", "unit": "nM"}, {"measurement": "IC50", "setting": "[2]", "result": "1 to 9.9", "unit": "nM"}]}, {"smiles": "O=P(O)(O)CP(=O)(O)OC[C@H]1O[C@@H](c2cnc3c(NC4CCC(F)(F)CC4)nc(Cl)nn23)[C@H](O)[C@@H]1O", "note": "[Compound 48, [({[(2R,3S,4R,5S)-5-{2-chloro-4-[(4,4-difluorocyclohexyl)amino]imidazo[2,1-f][1,2,4]triazin-7-yl}-3,4-dihydroxyoxolan-2-yl]methoxy}(hydroxy)phosphoryl)methyl]phosphonic Acid]", "values": [{"measurement": "IC50", "setting": "[1]", "result": "< 10", "unit": "nM"}, {"measurement": "IC50", "setting": "[2]", "result": "1 to 9.9", "unit": "nM"}]}, {"smiles": "O=P(O)(O)CP(=O)(O)OC[C@H]1O[C@@H](c2cnc3c(NC4CCC(F)(F)C4)nc(Cl)nn23)[C@H](O)[C@@H]1O", "note": "(stereo partly drawn) [Compound 49, (((((2R,3S,4R,1S)-5-(2-chloro-4-((3,3-difluorocyclopentyl)amino)imidazo[2,1-f][1,2,4]triazin-7-yl)-3,4-dihydroxytetrahydrofuran-2-yl)methoxy)(hydroxy)phosphoryl)methyl)phosphonic Acid]", "values": [{"measurement": "IC50", "setting": "[1]", "result": "< 10", "unit": "nM"}, {"measurement": "IC50", "setting": "[2]", "result": "< 1", "unit": "nM"}]}, {"smiles": "O=P(O)(O)CP(=O)(O)OC[C@H]1O[C@@H](c2cnc3c(NC4CC5CCC4C5)nc(Cl)nn23)[C@H](O)[C@@H]1O", "note": "(stereo partly drawn) [Compound 50, [({[(2R,3S,4R,5S)-5-(4-{bicyclo[2.2.1]heptan-2-ylamino}-2-chloroimidazo[2,1-f][1,2,4]triazin-7-yl)-3,4-dihydroxyoxolan-2-yl]methoxy}(hydroxy)phosphoryl)methyl]phosphonic acid]", "values": [{"measurement": "IC50", "setting": "[1]", "result": "< 10", "unit": "nM"}, {"measurement": "IC50", "setting": "[2]", "result": "< 1", "unit": "nM"}]}, {"smiles": "C[C@H](Nc1nc(Cl)nn2c([C@@H]3O[C@H](COP(=O)(O)CP(=O)(O)O)[C@@H](O)[C@H]3O)cnc12)c1ccc(F)c(F)c1", "note": "[Compound 52, (((((2R,3S,4R,5S)-5-(2-chloro-4-(((S)-1-(3,4-difluorophenyl)ethyl)amino)imidazo[2,1-f][1,2,4]triazin-7-yl)-3,4-dihydroxytetrahydrofuran-2-yl)methoxy)(hydroxy)phosphoryl)methyl) phosphonic acid]", "values": [{"measurement": "IC50", "setting": "[1]", "result": "< 10", "unit": "nM"}, {"measurement": "IC50", "setting": "[2]", "result": "< 1", "unit": "nM"}]}, {"smiles": "C[C@H](Nc1nc(Cl)nn2c([C@@H]3O[C@H](COP(=O)(O)CP(=O)(O)O)[C@@H](O)[C@H]3O)cnc12)c1ccc(Cl)c(Cl)c1", "note": "[Compound 53, (((((2R,3S,4R,5S)-5-(2-chloro-4-(((S)-1-(3,4-dichlorophenyl)ethyl)amino)imidazo[2,1-f][1,2,4]triazin-7-yl)-3,4-dihydroxytetrahydrofuran-2-yl)methoxy)(hydroxy)phosphoryl)methyl)phosphonic acid]", "values": [{"measurement": "IC50", "setting": "[1]", "result": "< 10", "unit": "nM"}, {"measurement": "IC50", "setting": "[2]", "result": "< 1", "unit": "nM"}]}, {"smiles": "C[C@H](Nc1nc(Cl)nn2c([C@@H]3O[C@H](COP(=O)(O)CP(=O)(O)O)[C@@H](O)[C@H]3O)cnc12)c1ccc(Cl)cc1", "note": "[Compound 54, (((((2R,3S,4R,1S)-5-(2-chloro-4-(((S)-1-(4-chlorophenyl)ethyl)amino)imidazo[2,1-f][1,2,4]triazin-7-yl)-3,4-dihydroxytetrahydrofuran-2-yl)methoxy)(hydroxy)phosphoryl)methyl)phosphonic Acid]", "values": [{"measurement": "IC50", "setting": "[1]", "result": "< 10", "unit": "nM"}, {"measurement": "IC50", "setting": "[2]", "result": "< 1", "unit": "nM"}]}, {"smiles": "O=P(O)(O)CP(=O)(O)OC[C@H]1O[C@@H](c2cnc3c(N4CCC[C@H]4c4ccccc4F)nc(Cl)nn23)[C@H](O)[C@@H]1O", "note": "[Compound 55, (((((2R,3S,4R,1S)-5-(2-chloro-4-((S)-2-(2-fluorophenyl)pyrrolidin-1-yl)imidazo[2,1-f][1,2,4]triazin-7-yl)-3,4-dihydroxytetrahydrofuran-2-yl)methoxy)(hydroxy)phosphoryl)methyl)phosphonic Acid]", "values": [{"measurement": "IC50", "setting": "[1]", "result": "< 10", "unit": "nM"}, {"measurement": "IC50", "setting": "[2]", "result": "< 1", "unit": "nM"}]}, {"smiles": "O=P(O)(O)CP(=O)(O)OC[C@H]1O[C@@H](c2cnc3c(N4CCCC[C@H]4c4ccccc4)nc(Cl)nn23)[C@H](O)[C@@H]1O", "note": "[Compound 56, (((((2R,3S,4R,1S)-5-(2-chloro-4-((S)-2-phenylpiperidin-1-yl)imidazo[2,1-f][1,2,4]triazin-7-yl)-3,4-dihydroxytetrahydrofuran-2-yl)methoxy)(hydroxy)phosphoryl)methyl)phosphonic Acid]", "values": [{"measurement": "IC50", "setting": "[1]", "result": "< 10", "unit": "nM"}, {"measurement": "IC50", "setting": "[2]", "result": "< 1", "unit": "nM"}]}, {"smiles": "N#Cc1nc(NC2CCCC2)c2ncc([C@@H]3O[C@H](COP(=O)(O)CP(=O)(O)O)[C@@H](O)[C@H]3O)n2n1", "note": "[Compound 62, (((((2R,3S,4R,5S)-5-(2-cyano-4-(cyclopentylamino)imidazo[2,1-f][1,2,4]triazin-7-yl)-3,4-dihydroxytetrahydrofuran-2-yl)methoxy)(hydroxy)phosphoryl)methyl)phosphonic Acid]", "values": [{"measurement": "IC50", "setting": "[1]", "result": "< 10", "unit": "nM"}, {"measurement": "IC50", "setting": "[2]", "result": "< 1", "unit": "nM"}]}, {"smiles": "O=P(O)(O)CP(=O)(O)OC[C@H]1O[C@@H](c2cnc3c(N[C@H]4CCc5ccccc54)nc(Cl)nn23)[C@H](O)[C@@H]1O", "note": "[Compound 63, [({[(2R,3S,4R,5S)-5-{2-chloro-4-[(1S)-2,3-dihydro-1H-inden-1-ylamino]imidazo[2,1-f][1,2,4]triazin-7-yl}-3,4-dihydroxyoxolan-2-yl]methoxy}(hydroxy)phosphoryl)methyl] phosphonic acid]", "values": [{"measurement": "IC50", "setting": "[1]", "result": "< 10", "unit": "nM"}, {"measurement": "IC50", "setting": "[2]", "result": "< 1", "unit": "nM"}]}, {"smiles": "O=P(O)(O)CP(=O)(O)OC[C@H]1O[C@@H](c2cnc3c(N4CCC[C@H]4c4ccccc4)nc(Cl)nn23)[C@H](O)[C@@H]1O", "note": "[Compound 64, (((((2R,3S,4R,1S)-5-(2-chloro-4-((S)-2-phenylpyrrolidin-1-yl)imidazo[2,1-f][1,2,4]triazin-7-yl)-3,4-dihydroxytetrahydrofuran-2-yl)methoxy)(hydroxy)phosphoryl)methyl)phosphonic Acid]", "values": [{"measurement": "IC50", "setting": "[1]", "result": "< 10", "unit": "nM"}, {"measurement": "IC50", "setting": "[2]", "result": "< 1", "unit": "nM"}]}, {"smiles": "NC(=O)c1nc(NC2CCCC2)c2ncc([C@@H]3O[C@H](COP(=O)(O)CP(=O)(O)O)[C@@H](O)[C@H]3O)n2n1", "note": "[Compound 66, (((((2R,3S,4R,5S)-5-(2-carbamoyl-4-(cyclopentylamino)imidazo[2,1-f][1,2,4]triazin-7-yl)-3,4-dihydroxytetrahydrofuran-2-yl)methoxy)(hydroxy)phosphoryl)methyl)phosphonic Acid]", "values": [{"measurement": "IC50", "setting": "[1]", "result": "< 10", "unit": "nM"}, {"measurement": "IC50", "setting": "[2]", "result": "< 1", "unit": "nM"}]}, {"smiles": "O=P(O)(O)CP(=O)(O)OC[C@H]1O[C@@H](c2cnc3c(N4CC5CCCC5C4)nc(Cl)nn23)[C@@H](F)[C@@H]1O", "note": "(stereo partly drawn) [Compound 72, (((((2R,3R,4S,5S)-5-(2-chloro-4-(hexahydrocyclopenta[c]pyrrol-2(1H)-yl)imidazo[2,1-f][1,2,4]triazin-7-yl)-4-fluoro-3-hydroxytetrahydrofuran-2-yl)methoxy)(hydroxy)phosphoryl)methyl) phosphonic Acid]", "values": [{"measurement": "IC50", "setting": "[1]", "result": "< 10", "unit": "nM"}, {"measurement": "IC50", "setting": "[2]", "result": "1 to 9.9", "unit": "nM"}]}]}
